According to patent EP4796171A2 (Zealand Pharma A/S, priority 2017, dated 2018):
pEC50: −log10 of the molar value. Where “and” joins values, the source holds several entries; their conditions need not be identical. Identical values can stand only once. Entries after “also recorded” stand apart in the source; their conditions may differ. Like-named read-outs stand apart in the source and are kept apart here. Each block holds one substance with its values, some of them ahead of it.

Experiments:
[1] = background statement; cited from earlier work
human GLP-2 receptors = biological target: T1, human GLP-2 receptors (Homo sapiens, UniProt O95838, D470N); experiment: GLP-2 receptor efficacy assay (cAMP AlphaScreen); assay type: cell-based
T1 sequence (O95838 1-553 D470N): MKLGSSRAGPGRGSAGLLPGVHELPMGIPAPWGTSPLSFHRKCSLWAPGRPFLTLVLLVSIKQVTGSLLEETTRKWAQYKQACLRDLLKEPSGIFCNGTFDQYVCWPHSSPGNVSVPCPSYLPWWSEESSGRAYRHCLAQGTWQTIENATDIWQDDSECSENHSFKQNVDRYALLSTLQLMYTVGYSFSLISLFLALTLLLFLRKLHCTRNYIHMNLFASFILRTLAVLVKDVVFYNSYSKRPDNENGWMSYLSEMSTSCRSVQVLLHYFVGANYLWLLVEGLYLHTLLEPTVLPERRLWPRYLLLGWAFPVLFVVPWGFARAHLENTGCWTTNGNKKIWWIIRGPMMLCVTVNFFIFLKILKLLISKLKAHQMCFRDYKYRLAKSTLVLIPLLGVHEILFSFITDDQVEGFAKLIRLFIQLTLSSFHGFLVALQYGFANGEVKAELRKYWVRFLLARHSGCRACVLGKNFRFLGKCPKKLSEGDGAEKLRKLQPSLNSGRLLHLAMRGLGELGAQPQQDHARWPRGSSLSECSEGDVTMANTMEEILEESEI
Text: The hGLP2-R was purchased from MRC-geneservice, Babraham, Cambridge as an Image clone: 5363415 (11924-117). For subcloning into a mammalian expression vector, primers for subcloning were obtained from DNA-Technology, Risskov, Denmark. The 5' and 3' primers used for the PCR reaction include terminal restriction sites for cloning and the context of the 5' primer is modified to a Kozak consensus without changing the sequence of the product encoded by the ORF. A standard PCR reaction was run using Image clone 5363415 (11924-117) as a template with the above mentioned primers and Polymerase Herculase II Fusion in a total vol. of 50µl. The generated PCR product was purified using GFX PCR and Gel band purification kit, digested with restriction enzymes and cloned into the mammalian expression vector using Rapid DNA Ligation Kit. Ligation reaction was transformed to XL10 Gold Ultracompetent cells and colonies were picked for DNA production using Endofree Plasmid maxi kit. Subsequent sequence analysis was conducted by MWG Eurofins, Germany.
HEK293 cells were transfected using the Lipofectamine PLUS transfection method. The day before transfection, HEK293 cells were seeded in two T75 flasks at a density of 2 x 10^6 cells / T75 flask in cell culturing medium without antibiotics. On the day of transfection, cells were washed with 1x DPBS and medium was replaced with Optimem to a volume of 5 mL / T75 flask before addition of Lipofectamine-plasmid complexes were added gently and drop wise to the cells in T75 flasks and replaced with growth medium after 3 hours and again to growth medium supplemented with 500µg/mL G418 after 24 hours. After 4 weeks in G418 selection, clones were picked and tested in a functional assay.
The cAMP AlphaScreen® assay from Perkin Elmer was used to quantitate the cAMP response to activation of the GLP2 receptor. […] Table 2: GLP-2R EC50 measurements

[2] = Phase 2 clinical trial, PK profile of ZP1848 and metabolites in SBS patients; assay type: in vivo, human; settings: for Conc.: plasma
Procedure: A phase 2 clinical trial was conducted to i.a. determine the PK profile of ZP1848 and metabolites in human SBS patients.
The study was designed as a randomized, cross-over and double-blinded with three different doses of ZP1848 (10 mg, 1 mg, 0.1 mg) in 16 SBS patients.
The 18 SBS patients (16 patients completed the study) were randomized evenly and in a double-blinded fashion to each of the six cross-over dose level combinations: 10 mg/1 mg, 10 mg/0.1 mg, 1 mg/10 mg, 1 mg/0.1 mg, 0.1 mg/10 mg, 0.1 mg/1 mg of ZP1848. The patients were injected once daily (QD) subcutaneously with the above doses of ZP1848.
Blood samples for PK analysis were collected on several study visits throughout the study period: the study comprised a 1st baseline balance study (4 days), a 1st treatment period (21 days) including a 1st treatment balance study (last 4 days of 1st treatment period), followed by a wash-out period (at least 4 weeks); and a 2nd baseline balance study (4 days), a 2nd treatment period (21 days) including a 2nd treatment balance study (last 4 days of 2nd treatment period) and a follow-up period (at least 4 weeks).
PK sampling was performed at visit 11 (1st treatment, balance study) and visit 17 (second day of 2nd baseline study - after a wash out period), and again at visit 25 (2nd treatment balance study) and at visit 29 (last day of follow-up period).
At day visit 11 and visit 25 a full PK profile in steady state was investigated. PK samples were taken prior to injection of ZP1848, and at the following time points (+/- 10 minutes) after trial product administration: 1h, 2h, 4h, 6h, 8h, 10h, 12h and 24h. Each PK sample contained 2 mL of blood, resulting in a total of […] blood drawn for PK purposes. The plasma sample was immediately stored at -80°C after sampling.
Plasma samples were analyzed after immunoaffinity extraction followed by liquid chromatography mass spectrometry (LC-MS/MS). For each patient plasma concentrations were used for calculation of the pharmacokinetic parameters using the non-compartmental approach in Excel. Plasma terminal elimination half-life (T½) was determined as In(2)/ke where ke is the magnitude of the slope of the log linear regression of the log concentration versus time profile during the terminal phase.

[3] = plasma samples from SBS patients injected once daily (QD) subcutaneously with ZP1848; settings: human, up to Day 56
[4] = plasma of healthy subjects after SC injections (once daily or once weekly) or single IV infusion of glepaglutide; settings: human, up to 168 hours post dose
Beagle Dogs = experiment: 39-week subcutaneous administration to beagle dogs with 6-week recovery, intestine length and weight; assay type: in vivo; settings: vs controls
Procedure: ZP1848 (0.25, 1 or 5 mg/kg/day) was given for 39 weeks subcutaneously to beagle dogs (22 to 24 weeks). Vehicle was used as the control. Recovery from any effect was evaluated during a 6 week recovery period. The study was conducted in accordance with the applicable sections of the United Kingdom Animals (Scientific Procedures) Act 1986, Amendment Regulations 2012 (the Act).
After 39 weeks the dogs were sacrificed and all animals were subject to a detailed necropsy. The length of the small and large intestines were measured separately and recorded in centimeters. The entire length of the gastrointestinal tract (starting at the duodenum and ending at the rectum) was removed and trimmed of any excessive mesentery, connective or adipose tissue and the measurements for the small and large intestine recorded by laying the small intestine and large intestine on a clean surface and measured with a tape measure. The sections required for histopathology were left unopened and flushed through with water. The remainder were opened, cleaned with water, carefully blotted dry prior to weighing. On completion of length and weight measurements, the gastrointestinal tract was processed and fixed in 10% Neutral Buffered Formalin, as per standard necropsy practice for this species.

Wistar rats = experiment: Intestinotrophic effects after 26 weeks of daily SC dosing in rats; assay type: in vivo
Procedure: Wistar rats were dosed subcutaneously (SC) with vehicle, 1, 3 and 10 mg/kg ZP1848 on a daily basis for 26 weeks. Further sub-groups of control and high-dose animals were allowed a 6-week recovery period following completion of the dosing period. […] The length and the weight of the small and large intestines were measured at necropsy as indicators of intestinotrophic effects and the intestinal tract was evaluated histologically.

SBS patients = experiment: Fecal wet weight output in SBS-IF/SBS-II patients (metabolic balance studies); assay type: in vivo, human; settings: change from baseline
Procedure: The study was designed as a randomized, cross-over and double-blinded with three different doses of ZP1848 (10 mg, 1 mg, 0.1 mg) in 16 SBS patients. The study protocol was approved by the Danish Medical Agency and The Danish Committee on Health Research Ethics.
The 18 SBS patients were randomized evenly and in a double-blinded fashion to each of the six cross-over dose level combinations: 10 mg/1 mg, 10 mg/0.1 mg, 1 mg/10 mg, 1 mg/0.1 mg, 0.1 mg/10 mg, 0.1 mg/1 mg of ZP1848. The SBS patient group comprised 9 females, 9 males; hereof 13 SBS-IF patients and 5 SBS-II patients. Mean age was 62 years, mean short bowel length was 110 cm, and two SBS-IF patients had > 50% colon in continuity. The patients were injected once daily subcutaneously with the above doses of ZP1848.
The aim of this study was to evaluate efficacy of ZP1848 on fecal wet weight output in patients with SBS-II and SBS-IF and thus the absolute change from baseline in wet weight of fecal output as measured by metabolic balance studies prior to and on the […] of each treatment period.

[5] = females, 5 mg/kg/day SC, 39 weeks
[6] = females, end of six-week recovery period
[7] = males, 5 mg/kg/day SC, 39 weeks
[8] = males, end of six-week recovery period
[9] = females, 10 mg/kg SC daily, 26 weeks, main study animals
[10] = females, 10 mg/kg, recovery animals (6-week recovery)
[11] = males, 10 mg/kg SC daily, 26 weeks, main study animals
[12] = males, 10 mg/kg, recovery animals (6-week recovery)

Substance: lixisenatide
Half-life [1]: 2 to 4 h

Substance: H-HGEGSFSSELSTILDALAARDFIAWLIATKITDKKKKKK-NH2 [ZP1846]
pEC50 (human GLP-2 receptors): 9.59

pEC50 (human GLP-2 receptors): 9.96
Substance: H-HGEGTFSSELATILDALAARDFIAWLIATKITDKKK-OH [ZP2949]

pEC50 (human GLP-2 receptors): 10.14
in vitro potency (human GLP-2 receptors; in words, relative to ZP1848): comparable to ZP1848
plasma level ([2]; in words, relative to ZP1848 after administration of ZP1848): in the same range as that of ZP1848
Conc. ([2]; Day 0 (visit 11 or 25, treatment balance study), ZP1848 SC once daily, individual subjects): 0.131 nM and 0.543 nM
Conc. ([2]; Day 28-56 (visit 17 or 29, after wash-out/follow-up), individual subjects): 0.0326 nM and 0.0614 nM
Half-life ([2]; terminal, from Day 0 and wash-out/follow-up concentrations, individual subjects): 240 h
Substance: H-HGEGTFSSELATILDALAARDFIAWLIATKITDKK-OH [ZP2711]

pEC50 (human GLP-2 receptors): 9.52
Substance: H-HGEGTFSSELATILDALAARDFIAWLIATKITDKKKKKK-NH2 [ZP1848] [listing 1 of 2 here]

Substance: H-HGEGTFSSELATILDALAARDFIAWLIATKITDKKKKKK-NH2
fragment found [3]: ZP2469, major; also recorded: ZP2711, major
fragment found [4]: ZP2469 (ZP18481-34), major; also recorded: ZP2711 (ZP18481-35), major

Substance: H-HGEGTFSSELATILDALAARDFIAWLIATKITDKKKKKK-NH2 [ZP1848] [listing 2 of 2 here]
increase in small intestine length (Beagle Dogs; [5]): 37%
increase in small intestine weight (Beagle Dogs; [5]): 80%
increase in small intestine length (Beagle Dogs; [6]): 19%
increase in small intestine weight (Beagle Dogs; [6]): 34%
increase in small intestine length (Beagle Dogs; [7]): 46%
increase in small intestine weight (Beagle Dogs; [7]): 103%
increase in small intestine length (Beagle Dogs; [8]): 16%
increase in small intestine weight (Beagle Dogs; [8]): 78%
SI length, percentage increase relative to control group (Wistar rats; [9]): 47%
SI weight, percentage increase relative to control group (Wistar rats; [9]): 238%
SI length, percentage increase relative to control group (Wistar rats; [10]): 45%
SI weight, percentage increase relative to control group (Wistar rats; [10]): 101%
length and weight of the small intestines (Wistar rats; in words, 1, 3 and 10 mg/kg SC daily, 26 weeks): dose-related significant (p<0.01) increases
length and weight of the large intestine (Wistar rats; in words, 26 weeks SC daily): slightly increased
mucosal hyperplasia of the duodenum, jejunum and ileum (Wistar rats; in words, histology, 26 weeks SC daily): dose-related increase
SI length, percentage increase relative to control group (Wistar rats; [11]): 38%
SI weight, percentage increase relative to control group (Wistar rats; [11]): 190%
SI length, percentage increase relative to control group (Wistar rats; [12]): 39%
SI weight, percentage increase relative to control group (Wistar rats; [12]): 85%
Changes in Absolute Fecal Wet Weight Output (Means) (SBS patients; IF (n=11), 0.1 mg SC once daily): 196 g/day
Changes in Absolute Fecal Wet Weight Output (Means) (SBS patients; IF (n=11), 1 mg + 10 mg pooled): -741 g/day
Changes in Absolute Fecal Wet Weight Output (Means) (SBS patients; IF (n=11), 1 mg SC once daily): -587 g/day
Changes in Absolute Fecal Wet Weight Output (Means) (SBS patients; IF (n=11), 10 mg SC once daily): -894 g/day
Changes in Absolute Fecal Wet Weight Output (Means) (SBS patients; II (n=5), 0.1 mg SC once daily): -37 g/day
Changes in Absolute Fecal Wet Weight Output (Means) (SBS patients; II (n=5), 1 mg + 10 mg pooled): -570 g/day
Changes in Absolute Fecal Wet Weight Output (Means) (SBS patients; II (n=5), 1 mg SC once daily): -303 g/day
Changes in Absolute Fecal Wet Weight Output (Means) (SBS patients; II (n=5), 10 mg SC once daily): -837 g/day
Changes in Absolute Fecal Wet Weight Output (Means) (SBS patients; II+IF (n=16), 0.1 mg SC once daily): 173 g/day
Changes in Absolute Fecal Wet Weight Output (Means) (SBS patients; II+IF (n=16), 1 mg + 10 mg pooled): -713 g/day
Changes in Absolute Fecal Wet Weight Output (Means) (SBS patients; II+IF (n=16), 1 mg SC once daily): -592 g/day
Changes in Absolute Fecal Wet Weight Output (Means) (SBS patients; II+IF (n=16), 10 mg SC once daily): -833 g/day
